Assay results from ChEMBL document CHEMBL1201862, “PubChem BioAssay data set” (2004).
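Where inhibition never reached the appropriate level, the endpoint shown equals the highest concentration tested. Otherwise, values were interpolated linearly from a five-concentration, 48-hour dose response in 96-well plates. The concentration for 50% growth inhibition is given as GI50.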 Activity calls are given as the source filed them. Cut-off read from the data, not from the text of the source: active = GI50 up to about 1.1 µM and inactive = higher.

Key:
Assay in all cases: NCI-60 cell line screen, 48 h
[1] = tested on: NCI-H460
[2] = tested on: SNB-75
[3] = tested on: HL-60
[4] = tested on: OVCAR-4
[5] = tested on: SK-OV-3
[6] = tested on: KM-20L2
[7] = tested on: RXF 393
[8] = tested on: UACC-257
[9] = tested on: RPMI-8226
[10] = tested on: SW-620
[11] = tested on: CCRF-CEM
[12] = tested on: NCI-H23
[13] = tested on: Malme-3M
[14] = tested on: NCI-H522
[15] = tested on: SK-MEL-28
[16] = tested on: OVCAR-3
[17] = tested on: HCT-15

| Compound | GI50 [1] | GI50 [2] | GI50 [3] | GI50 [4] | GI50 [5] | GI50 [6] | GI50 [7] | GI50 [8] | GI50 [9] | GI50 [10] | GI50 [11] | GI50 [12] | GI50 [13] | GI50 [14] | GI50 [15] | GI50 [16] | GI50 [17] [µM] |
| --- | --- | --- | --- | --- | --- | --- | --- | --- | --- | --- | --- | --- | --- | --- | --- | --- | --- |
| Cc1ccc(NC(=O)CC(=O)n2nc(-c3ccccc3)c(/N=N\c3ccccc3[N+](=O)[O-])c2-c2ccccc2)cc1 | 35.8 µM (inactive) | 69.3 µM (inactive) | 86.5 µM (inactive) | 45.3 µM (inactive) | 80.2 µM (inactive) | > 100 µM (inactive) | 55.1 µM (inactive) | > 100 µM (inactive) | > 100 µM (inactive) | > 100 µM (inactive) | > 100 µM (inactive) | > 100 µM (inactive) | 86.1 µM (inactive) | 74.8 µM (inactive) | > 100 µM (inactive) | 82.8 µM (inactive) |  |
| O=C1NC2C(=O)N(Cc3ccccc3)C(=O)C2N1 (stereo not given) | > 100 µM (inactive) | > 100 µM (inactive) | > 100 µM (inactive) | > 100 µM (inactive) | > 100 µM (inactive) | > 100 µM (inactive) | > 100 µM (inactive) | > 100 µM (inactive) | > 100 µM (inactive) | > 100 µM (inactive) | > 100 µM (inactive) | > 100 µM (inactive) | > 100 µM (inactive) | > 100 µM (inactive) | > 100 µM (inactive) | > 100 µM (inactive) | > 100 |
| CC1CC(C)C2OC2(C)C[C@H](C)C(=O)NC(C)C(=O)N(C)[C@H](Cc2c(Br)[nH]c3ccccc23)C(=O)N[C@@H](c2ccc(O)cc2)CC(=O)O1 (stereo not given in full) | 0.0388 µM (active) | 0.142 µM (active) | 0.0723 µM (active) | 0.22 µM (active) | 0.433 µM (active) | 0.15 µM (active) | 1.47 µM (inactive) | 0.418 µM (active) | 0.0355 µM (active) | < 0.0262 µM (active) | 0.0417 µM (active) | 0.902 µM (active) | 0.527 µM (active) | 0.0504 µM (active) | 0.839 µM (active) | 0.49 µM (active) | 39.3 |
| C=CCNC(=O)/C=C\C(=O)O | > 100 µM (inactive) | > 100 µM (inactive) | > 100 µM (inactive) | > 100 µM (inactive) | > 100 µM (inactive) | > 100 µM (inactive) | > 100 µM (inactive) | > 100 µM (inactive) |  | > 100 µM (inactive) | > 100 µM (inactive) | > 100 µM (inactive) | > 100 µM (inactive) | > 100 µM (inactive) | > 100 µM (inactive) | > 100 µM (inactive) | > 100 |
| CC(=O)NC(CCCNC(=O)OCc1ccccc1)C(=O)O (stereo not given) | > 100 µM (inactive) | 68.1 µM (inactive) |  | 36.1 µM (inactive) | > 100 µM (inactive) | > 100 µM (inactive) | > 100 µM (inactive) | > 100 µM (inactive) | > 100 µM (inactive) | > 100 µM (inactive) | > 100 µM (inactive) | > 100 µM (inactive) | > 100 µM (inactive) | > 100 µM (inactive) | > 100 µM (inactive) | > 100 µM (inactive) | > 100 |
| NN=C1/C(=C\c2ccccc2)CCC/C1=C/c1ccccc1 | 32 µM (inactive) | 17.7 µM (inactive) | 20.3 µM (inactive) | 49.4 µM (inactive) | > 100 µM (inactive) | 39.6 µM (inactive) | 31 µM (inactive) | 30.8 µM (inactive) | 16.4 µM (inactive) | 42.5 µM (inactive) | 20.1 µM (inactive) | 36.9 µM (inactive) | 22.4 µM (inactive) | 15.4 µM (inactive) | 39.5 µM (inactive) | 32.3 µM (inactive) | 36.7 |
| O=c1[nH]c(C2CCCCC2)nc2cc(Cl)ccc12 |  | 55.6 µM (inactive) |  | 67.3 µM (inactive) | > 100 µM (inactive) | > 100 µM (inactive) | 45.6 µM (inactive) | > 100 µM (inactive) | > 100 µM (inactive) | > 100 µM (inactive) |  | > 100 µM (inactive) | > 100 µM (inactive) | > 100 µM (inactive) | > 100 µM (inactive) | > 100 µM (inactive) | > 100 |
| CC(=O)Nc1ccccc1-c1nc2ccccc2nc1C | > 100 µM (inactive) | 81.5 µM (inactive) | > 100 µM (inactive) | > 100 µM (inactive) | > 100 µM (inactive) | > 100 µM (inactive) |  | > 100 µM (inactive) | > 100 µM (inactive) | > 100 µM (inactive) | > 100 µM (inactive) | > 100 µM (inactive) | > 100 µM (inactive) | > 100 µM (inactive) | > 100 µM (inactive) | > 100 µM (inactive) | > 100 |
| CCOC(=O)CCC1(C(=O)OCC)CCCC1=O (stereo not given) | > 100 µM (inactive) | > 100 µM (inactive) | > 100 µM (inactive) | > 100 µM (inactive) | > 100 µM (inactive) | > 100 µM (inactive) | > 100 µM (inactive) | > 100 µM (inactive) | 34.4 µM (inactive) |  | > 100 µM (inactive) | > 100 µM (inactive) | > 100 µM (inactive) | > 100 µM (inactive) | > 100 µM (inactive) | > 100 µM (inactive) | 78.3 |
